# Laboratory results reported in ChEMBL document CHEMBL5236544, “Furazans in Medicinal Chemistry” (J Med Chem, 2021).
# Experiments:
# MCF7 = assay: cells; assay type: functional, cell-based; conditions: Homo sapiens, MCF7, 24 h
# Description: Antiproliferative activity against human MCF7 assessed as reduction in cell viability incubated for 24 hrs by MTT assay
# physchem [1] = conditions: PBS, pH 7.4
# Description: Solubility of the compound in PBS at pH 7.4
# in vitro = conditions: human, liver microsomes, po, 10 mg/kg
# Description: Half life in human liver microsomes at 10 mg/kg, po
# physchem [2] = conditions: octanol/water
# Description: Lipophilicity, log P of the compound
# CHO = assay: Antiproliferative activity against CHO cells assessed as reduction in cell proliferation by MTT assay; assay type: functional, cell-based; conditions: Cricetulus griseus
# [3] = target: Cyclin-dependent kinase 2 (Homo sapiens, UniProt P24941); assay: Inhibition of CDK-2 (unknown origin)
EC50 (MCF7),solubility (physchem [1]),half-life (in vitro),logP (physchem [2]),IC50 [3],SMILES,EC50 (CHO)
4.3 µM,> 500 µM,5.7 h,5.2,–,Oc1nc2nonc2nc1Nc1ccc(OC(F)(F)F)cc1,–
–,–,–,–,> 250 µM,Nc1nonc1-n1nnc(-c2nnc(-c3ccncc3)[nH]2)c1CN1CCCCC1,1.85 µM
